Source: article PMC12040169 (PLOS Biology, 2025)

assay: in vitro; conditions: human, hela cells, % viability

Structure (SMILES) | viability at 28.5 h, 10 µM [%]
O=C(Nc1ccccc1[N+](=O)[O-])c1cc(S(=O)(=O)Nc2ccccn2)ccc1Cl [CBK263229] | 87.8
C=CCn1c2ccccc2c2nnc(SCC(=O)OCN3C(=O)c4ccccc4C3=O)nc21 [CBK263231] | 106
O=C(Nc1ccc(Br)cc1)C1CC(O)CN1C(=O)OCc1ccccc1 (stereo not shown) [CBK263233] | 101
O=C(Nc1ccccc1C(=O)O)c1cc(S(=O)(=O)Nc2cccc([N+](=O)[O-])c2)ccc1Cl [CBK263234] | 90.3
Cc1cc(CN2CCOCC2)oc1C(=O)O [CBK263239C] | 104
O=C(Nc1ccccc1[N+](=O)[O-])c1cc(S(=O)(=O)NCc2ccccc2)c(Cl)cc1Cl [CBK263240] | 91.5
O=C(O)c1cccc(NS(=O)(=O)c2ccc(Cl)c(C(=O)Nc3ccc(Br)cc3)c2)c1 [CBK263241] | 87
CN(C)S(=O)(=O)c1ccc(C(=O)Nc2ccc(Br)cc2C(=O)c2ccccc2)cc1 [CBK263243] | 81.1
O=C(O)C[S+]([O-])c1ccccc1C(=O)O (stereo not shown) [CBK263244] | 96.3
O=C(Nc1ccccc1C(=O)O)c1cc(S(=O)(=O)Nc2ccc(F)cc2)ccc1Cl [CBK263248] | 120
O=S(=O)(NCc1ccccc1)c1cccc(S(=O)(=O)NCc2ccccc2)c1 [CBK263250] | 91.5
O=S(=O)(NCc1ccccc1)c1ccc(Cl)c(S(=O)(=O)NCc2ccccc2)c1 [CBK263251] | 81.9
O=C(Nc1ccccc1-c1nc2ccccc2[nH]1)c1ccc(S(=O)(=O)N2CCCC2)cc1 [CBK263252] | 88.5
Cc1cc(-c2ccc([N+](=O)[O-])cc2)nc2ccc3ccccc3c12 [CBK263253C] | 90.3
Nc1ccc(S(=O)(=O)Nc2nccc(/C=C/c3ccc(Cl)cc3)n2)cc1 [CBK263254] | 105
Fc1cccc(-c2nnc(SCc3nc4ccccc4[nH]3)n2-c2ccccc2)c1 [CBK263256] | 95.3
c1ccc(-n2nnnc2SCc2cccc(CSc3nnnn3-c3ccccc3)n2)cc1 [CBK263258] | 90.4
COc1ccc(NC(=O)c2ccc(N3CCN(Cc4ccccc4)CC3)c([N+](=O)[O-])c2)cc1 [CBK263260] | 106
NNC(=O)c1cc2ccccc2cc1NS(=O)(=O)c1ccccc1 [CBK263261] | 84.4
O=C(CSCc1nc2ccccc2[nH]1)Nc1ccc2ccccc2c1 [CBK263262] | 90.5
Cc1ccc(C(=O)O/N=C(\N)c2ccccn2)cc1 [CBK263265] | 90.9
Cc1ccc(S(=O)(=O)NCCOc2ccc(Cl)cc2)cc1[N+](=O)[O-] [CBK263268] | 106
O=C(CN(c1cccc(Cl)c1)S(=O)(=O)c1ccccc1)Nc1cccc2cccnc12 [CBK263270] | 87.9
Cc1oc(C(=O)Nc2ccc(C(=O)O)cc2)cc1COc1ccccc1 [CBK263273] | 94.2
Cc1cccc(C)c1NC(=O)CSCC(=O)Nc1ccc2ccccc2c1 [CBK263274] | 94.2
Cc1oc(C(=O)O)cc1CSCc1cc(C(=O)O)oc1C [CBK263275] | 101

Structure (SMILES) | viability at 28.5 h, 10 µM [%]
CC(C)C(=O)NC(c1ccco1)c1ccc2cccnc2c1O (stereo not shown) [CBK263277] | 96.5
O=C(CSc1nc2sc3c(c2c(=O)n1-c1ccccc1)CCCC3)NCCc1ccccc1 [CBK263280] | 93.7
Cc1ccn2c(-c3csc(Nc4ccc(C(=O)O)cc4)n3)c(C)nc2c1 [CBK263283B] | 97.5
COc1ccc(CCN2C(=O)CC(C(=O)O)S/C2=N\c2ccc(Cl)cc2)cc1OC (stereo not shown) [CBK263286] | 93.9
O=C(CSc1nnc(-c2ccccc2)[nH]1)c1cccc([N+](=O)[O-])c1 [CBK263287] | 91
Cc1nc2sccn2c1-c1csc(Nc2cccc(C(=O)O)c2)n1 [CBK263291B] | 91.9
CCOc1ccc(S(=O)(=O)N2CCSC2c2ccc(OC)c([N+](=O)[O-])c2)cc1 (stereo not shown) [CBK263293] | 101
Cc1nc2ncccn2c1-c1csc(Nc2ccc(S(N)(=O)=O)cc2)n1 [CBK263294B] | 84.8
COc1ccccc1OCCOc1ccc(/C=N/n2cnnc2)cc1 [CBK263295] | 106
Cc1nc(C)c(-c2csc(Nc3ncccn3)n2)s1 [CBK263297B] | 87.4
O=C(CCCN1C(=O)c2cccc3cccc(c23)C1=O)N1CCN(C/C=C/c2ccccc2)CC1 [CBK263300C] | 103
COc1ccc(S(=O)(=O)N2CCN(CCN3C(=O)c4cccc5cccc(c45)C3=O)CC2)cc1[N+](=O)[O-] [CBK263301] | 102
Cc1ccn2c(-c3csc(Nc4ccc(S(N)(=O)=O)cc4)n3)c(C)nc2c1 [CBK263304B] | 63.7
CCCOc1ccc(C(C)=O)cc1CC(C(N)=O)C(N)=O [CBK263309] | 90.6
CC1(C)Cc2nc3nc(SCC(=O)c4ccc(Br)cc4)n(-c4ccccc4)c(=O)c3cc2CO1 [CBK263310] | 91
CN1CCN(Cc2c(O)ccc3c(=O)c(-c4ccc(Cl)cc4)coc23)CC1 [CBK263314] | 102
COc1cccc(C(=O)N2CCN(C(=O)c3cccc(F)c3)CC2)c1OC [CBK263316] | 105
Cc1ccc(C(=O)C2=C(O)C(=O)N(CCCn3ccnc3)C2c2cccc([N+](=O)[O-])c2)cc1 (stereo not shown) [CBK263319] | 115
CC(=O)C1=C(O)C(=O)N(CCN2CCNCC2)C1c1cccc([N+](=O)[O-])c1 (stereo not shown) [CBK263320] | 101
Cc1ccc(-n2c(C)cc(/C=N/NC(=O)c3ccc(CN4CCOCC4)cc3)c2C)cc1 [CBK263324] | 86.8
O=C(N/N=C/c1ccc(O)cc1O)c1[nH]c2ccc([N+](=O)[O-])cc2c1-c1ccccc1 [CBK263328] | 69.7
Cc1ccc(N(CC(=O)Nc2cccnc2)S(=O)(=O)c2ccc(F)cc2)cc1 [CBK263332] | 93.8
Cc1ccc(N(CC(=O)Nc2ccccc2F)S(=O)(=O)c2ccc(F)cc2)cc1 [CBK263333] | 91.9
CS(=O)(=O)N(Cc1ccc(Cl)cc1)c1ccc(C(=O)Nc2cccnc2)cc1 [CBK263334] | 95.3
O=C(CCCSc1nc2sc3c(c2c(=O)[nH]1)CCCC3)NCCO [CBK263336] | 90.9
N#Cc1ccccc1/C=N/NC(=O)COc1ccc(-c2cc(-c3ccccc3)c3cc(Cl)ccc3n2)cc1 [CBK263337] | 89.1

Structure (SMILES) | viability at 28.5 h, 10 µM [%]
COc1ccc2c(c1)-c1c(ss/c1=N\c1ccc(S(N)(=O)=O)cc1)C(C)(C)N2 [CBK263339] | 88.7
COc1ccc(CN2CCN(Cc3ccccc3[N+](=O)[O-])CC2)c(OC)c1 [CBK263340] | 91
O=C(Nc1ccc(Cl)c(Cl)c1)Nc1ccccc1C(=O)O [CBK263344] | 82
O=C(Cc1ccc([N+](=O)[O-])cc1)Nc1cc(C(=O)O)cc(C(=O)O)c1 [CBK263345] | 100
Cc1sc(NC(=O)CN2CCOCC2)c(C(=O)c2ccccc2)c1C [CBK263346] | 109
COc1ccc(Br)cc1CN1CCN(Cc2cccc([N+](=O)[O-])c2)CC1 [CBK263347] | 91.6
CCOC(=O)c1c(NC(=O)CC2Sc3ccccc3NC2=O)sc(C)c1C (stereo not shown) [CBK263349] | 93.5
CCOC(=O)CSc1nnc(-c2ccncc2)n1-c1ccccc1 [CBK263350] | 92
Cc1ccc(S(=O)(=O)N(CC(O)Cn2c3ccc(Cl)cc3c3cc(Cl)ccc32)c2ccccc2)cc1 (stereo not shown) [CBK263353] | 92.2
Cc1cccc(C)c1OCC(=O)Nc1c[nH]c(=O)[nH]c1=O [CBK263358] | 46.2
COc1ccc(Br)cc1/C=N/NC(=O)CC1C(=O)NN=C1C (stereo not shown) [CBK263359] | 99.2
O=C(O)c1cc(NC(=O)c2ccco2)cc(C(=O)O)c1 [CBK263360] | 102
COc1ccc(/C=C(/NC(=O)c2cccc([N+](=O)[O-])c2)C(=O)O)cc1OC [CBK263362] | 97.1
O=C(COc1ccc(-c2cc(-c3ccccc3)c3cc(Cl)ccc3n2)cc1)N/N=C/c1ccc2ncccc2c1 [CBK263365] | 95.8
CC(C)(C)c1ccc(OCc2nnc(Sc3nc4ccc([N+](=O)[O-])cc4s3)n2-c2ccccc2)cc1 [CBK263366] | 105
O=C(C1=C(O)C(=O)N(Cc2cccnc2)C1c1ccc(Cl)cc1Cl)c1ccccc1 (stereo not shown) [CBK263367] | 101
O=C1c2ccccc2C(=O)N1c1ccc2nc(SCc3nc4ccccc4[nH]3)sc2c1 [CBK263368] | 95
COC(=O)c1c(NC(=O)COc2ccc(Br)cc2)sc2c1CCC2 [CBK263369] | 89.9
COc1ccc(Cn2c(-c3ccc(OC)c(O)c3)nc3ccccc32)cc1O [CBK263370] | 108
COc1ccc(S(=O)(=O)N2CCN(C(=O)COc3ccc4ccccc4c3)CC2)cc1 [CBK263371] | 91.5
O=C(O)c1cccnc1SC1CC(=O)N(Cc2ccccc2)C1=O (stereo not shown) [CBK263375] | 119
CC(C)(C)c1cc(Br)ccc1OCC(=O)Nc1nc[nH]n1 [CBK263379] | 96.1
CCOC(=O)c1c(NC(=O)CC2Nc3ccccc3NC2=O)sc(C)c1C (stereo not shown) [CBK263381] | 94.2
CCc1n[nH]c(C(=O)N/N=C/c2cccnc2)c1C [CBK263386] | 90.4
COc1ccc(N2C(=O)CC(Sc3ncccc3C(=O)O)C2=O)cc1 (stereo not shown) [CBK263387] | 95.5

same assay, conditions: human, hela cells, % viability, bulk resorufin, single well

Structure (SMILES) | viability at 28.5 h, 10 µM [%]
CCOc1ccc(N2C(=O)/C(=C/c3ccc(Br)cc3)C(=O)NC2=S)cc1 [CBK263305] | 92.7
N#CC(CCN1CCOCC1)(c1ccccc1)c1ccccc1 [CBK263317] | 90.5
CCc1ccc(N2C(=O)/C(=C/c3ccc(OCC(=O)O)c(Br)c3)C(=O)NC2=S)cc1 [CBK263325] | 96.4
CCN(CC)S(=O)(=O)c1ccc(N/C=C2/C(=O)NC(=O)N(c3ccccc3)C2=O)cc1 [CBK263372] | 89.9
O=C(O)COc1c(Cl)cc(C=C2C(=O)NC(=O)NC2=O)cc1Cl [CBK263377] | 83
